Experimental data: PMC8959600 (eLife, 2022)

Assays:
[1] = tested on: clinical isolates of Shigella (S. flexneri EG478, S. flexneri_01_0417, S. sonnei_02_1181); test: Time-kill curve assays; type: cell-based, Shigella spp.
Protocol: Time-kill curve assays were performed in 20 mL volume in 50 mL tubes by culturing 5 × 10^5 CFU/mL Shigella spp. in Müller Hinton broth in the presence of four antimicrobial concentrations in doubling dilutions ranging from 0.5xMIC to 4xMIC. Bacteria were grown with agitation at 200 rpm at 37 °C and monitored over a time-course of 24 hr (0, 2, 4, 6, 8, and 24 hr). For each concentration and time point, 100 μL of bacterial culture were diluted and used to inoculate Luria-Bertani agar plates that were incubated at 37 °C overnight. Next, bacterial colonies were enumerated.

in vivo = conditions: pig, po, 50 mg/kg
Protocol: Blood was collected from the jugular veins while manually restraining the piglets. […] Blood samples were centrifuged at 2,200 x g for 10 min at 4 °C. Plasma was extracted and stored at –80 °C. Pharmacokinetic analysis was performed as above described.

S. flexneri 2457T = test: Gnotobiotic piglet Shigella infection model, efficacy; type: in vivo; conditions: 6-day experiment
[2] = mice, Tebipenem PO 39 mg/kg, n = 3
[3] = Intestinal distribution by quantitative LC-MS in mice; type: in vivo; conditions: for peak drug concentration: mice, oral 50 mg/kg Tebipenem pivoxil
Protocol: One animal was euthanised at 0.25, 0.5, 1, and 4 hr respectively and 2.5–3 cm sections of the intestine (duodenum, jejunum, ileum, caecum, and colon) were collected and frozen at –80 °C. For quantitative LCMS analysis of intestine homogenate, samples were thawed at ambient temperature, mixed with water (1:1) and homogenised by turrax (10 sec). Subsequently, 20 µL of homogenate were mixed with 200 µl of ACN: MeOH (80:20) and filtered using 0.2 µm filter plate (Whatman). LCMS analysis was performed as described in previous section. For MALDI imaging, 50 mm of the central part of each intestinal section were cut and mounted in a sample disc on dry ice with a solution of 1% methylcellulose (Sigma Aldrich, UK). Next, tissue sections of 12 µm (sagital sections) were obtained using a cryostat (Leica CM3600; Leica Microsystems Inc, Wetzlar, Germany) at –20 °C and collected in conductive-coated slides for MALDI Imaging (Bruker Daltonic). After the ‘MALDI’ section was obtained a consecutive section for histology was taken. Prior to matrix coating, samples for MALDI were optical scanned in a PathScanner. The matrix deposition was conducted in a sprayer ImagePrep System (Bruker Daltonic) which uses vibrational vaporisation technology. As matrix solution α-CHCA (α-Cyano-4-hydroxycinnamic acid (Sigma Aldrich) dissolved in 70:30 methanol/water (v/v) containing 0.2% TFA at 7 mg/mL was used. MALDI MSI data were obtained using a Bruker UltrafleXtream MALDI TOF/TOF (Bruker Daltonic, Germany)).

Salmonella (St14028) = test: Checkerboard synergy assay (FIC), laboratory isolate; type: cell-based, S. Typhimurium
Protocol: Before initiating drug combination assays, the MIC values for both compounds were determined against Shigella (Sf2457T), Salmonella (St14028), and E. coli (EcDH5a) isolates. […] 20 μM moxifloxacin was used as negative control (100% bacterial growth inhibition) in one column and DMSO as positive control (100% bacterial growth). A total of 25 µl of 1 × 10^6 CFU/mL bacterial culture was added to each well of a 384-well plate (μClear; Greiner Bio‐One). Plates were incubated overnight at 37 °C. Next, 10 µl of resazurin were added and plates were incubated at room temperature for 3 hr. Bacterial growth inhibition was measured by fluorescence in a Envision plate reader (PerkinElmer). All assays were performed in duplicate. Combination studies with clinical isolates were performed in 96-well plates (Greiner) adding 200 μl of 1 × 10^6 CFU/mL bacterial culture and following the same checkboard titration method as described above. The range of final working concentrations of each antimicrobial was adjusted based on the MIC of each selected organism.
MICs were determined for drug A and drug B alone and in combination. […] The sum of FIC was expressed using the following equation: FIC = (MIC of drug A in combination / MIC of drug A alone) + (MIC of drug B in combination / MIC of drug B alone) ([Le Minh et al., 2015]; [Petersen et al., 2006]; [Hall et al., 1983]; [European Committee for Antimicrobial Susceptibility Testing (EUCAST) of the European Society of Clinical Microbiology and Infectious Dieases (ESCMID), 2000]).

[4] = female, C57, mouse, duodenum and jejunum, po, 50 mg/kg, read-out: concentration in tissue
[5] = in combination with LpxC inhibitor PF-5081090

C[C@@H](O)[C@H]1C(=O)N2C(C(=O)O)=C(SC3CN(C4=NCCS4)C3)[C@H](C)[C@H]12 [Tebipenem]
time kill, antibacterial activity ([1]; higher concentrations (2–4 x MIC), 24 hr): protracted antibacterial activity
time kill, population behaviour ([1]; lower concentrations (0.5–1 x MIC), after 6 hr exposure, all three isolates): Population rebounds occurred
AUC(0-t) (in vivo): 32000 ng·h/mL
concentration at 6 hr (in vivo): 1000 ng/mL
weight gain vs vehicle-treated piglets (S. flexneri 2457T): not statistically significant
bioavailability [2]: 4 ± 1%
concentration at 15 min [3, 4]: > 300000 ng/g
concentration at 240 min [3, 4]: > 400 ng/g
peak drug concentration ([3]; caecum, after 60 min): 11 µg/g tissue
peak drug concentration ([3]; colon, after 60 min): 6 µg/g tissue
peak drug concentration ([3]; ileum, after 30 min): 15 µg/g tissue
interaction (FIC index) (Salmonella (St14028); [5]): partial synergy
reduction of the MIC against Tebipenem (Salmonella (St14028); [5]): > 10 fold
interaction (FIC index) (Salmonella (St14028); in combination with azithromycin): partial synergy
interaction (FIC index) (Salmonella (St14028); in combination with ceftriaxone): indifference or partial synergy
interaction (FIC index) (Salmonella (St14028); in combination with ciprofloxacin): indifference or partial synergy
interaction (FIC index) (Salmonella (St14028); in combination with mecillinam): indifference or partial synergy
